Data set [1] has as its target T1, human mGluR2 (hmGluR2) transiently over-expressed in HEK-293 cells (Homo sapiens, UniProt Q14416).
T1 construct: expressed in transfected cells; host or cells: HEK-293 cells, transient co-transfection by electroporation
Put plainly: Human mGluR2 negative allosteric modulator evaluation using Ca++ functional assay (agonist and NAM activity). Format: cell-based. As to conditions: hmGluR2 in HEK-293 cells, EC80 glutamate, Fluo4AM calcium readout; read-out: mGluR2 negative allosteric modulator activity IC50. As to the method:
Human mGluR2 Negative Allosteric Modulator Evaluation Using Ca^++ Functional Assay
Compounds of the present invention were tested successively for their agonist and negative allosteric modulator activities on human mGluR2 (hmGluR2) transiently over-expressed in HEK-293 cells. They exert agonist activity if they are able to activate mGluR2 by themselves, i.e., in absence of the endogenous agonist glutamate; and they exert negative allosteric modulator activity if they decrease the action of the endogenous agonist glutamate.
HEK-293 cells were maintained in Modified Eagle's Medium supplemented with 10% Foetal Calf Serum, 1% Penicillin/Streptomycin and 1% nonessential amino acids at 37° C./5% CO2.
Cells were plated after transfection onto polyornithine coated, clear bottom, black-walled, 96-well plates and cultured for 24 h.
Receptor activity was detected by changes in intracellular calcium measured using the fluorescent Ca^2+ sensitive dye, Fluo4AM (Molecular Probes).
The day of the assay, medium was aspirated and replaced during 3 hours by medium without serum supplemented with 1% Glutamax, 1% Penicillin/Streptomycin and 1% nonessential amino acids. Then, cells were washed with freshly prepared buffer B (HBSS 1× (PAA), Hepes 20 mM, MgSO4-7H2O 1 mM, Na2CO3 3.3 mM, CaCl2-2H2O 1.3 mM, 0.5% BSA, Probenecid 2.5 mM) and loaded at 37° C./5% CO2 for 1.5 hours with buffer B containing 1 μM Fluo4AM, 0.1 mg/mL Pluronic Acid, 7 μg/mL Glutamate Pyruvate Transaminase and 2 mM sodium pyruvate. Afterwards cells were washed twice with buffer B and 50 μL of this buffer were added to each well.
Agonist and negative allosteric modulator activities of compounds were consecutively evaluated on the same cells plate. […] Then, the cells were stimulated by an EC80 glutamate concentration and fluorescence was recorded for additional 60 s. EC80 glutamate concentration is the concentration giving 80% of the maximal glutamate response. Agonist and/or negative allosteric modulator activity(ies) were evaluated in comparison to basal signal or signal evoked by EC80 glutamate alone, respectively.
For potency determination, a dose-response test was performed using 8 concentrations of each compound of the invention. Dose-response curves were fitted using the sigmoidal dose-response (variable slope) analysis in GraphPad Prism program (Graph Pad Inc) and EC50 of agonist/IC50 of negative allosteric modulator activity was calculated. Dose-response experiments were all performed in duplicate, two times independently.

T1 sequence (Q14416 19-872): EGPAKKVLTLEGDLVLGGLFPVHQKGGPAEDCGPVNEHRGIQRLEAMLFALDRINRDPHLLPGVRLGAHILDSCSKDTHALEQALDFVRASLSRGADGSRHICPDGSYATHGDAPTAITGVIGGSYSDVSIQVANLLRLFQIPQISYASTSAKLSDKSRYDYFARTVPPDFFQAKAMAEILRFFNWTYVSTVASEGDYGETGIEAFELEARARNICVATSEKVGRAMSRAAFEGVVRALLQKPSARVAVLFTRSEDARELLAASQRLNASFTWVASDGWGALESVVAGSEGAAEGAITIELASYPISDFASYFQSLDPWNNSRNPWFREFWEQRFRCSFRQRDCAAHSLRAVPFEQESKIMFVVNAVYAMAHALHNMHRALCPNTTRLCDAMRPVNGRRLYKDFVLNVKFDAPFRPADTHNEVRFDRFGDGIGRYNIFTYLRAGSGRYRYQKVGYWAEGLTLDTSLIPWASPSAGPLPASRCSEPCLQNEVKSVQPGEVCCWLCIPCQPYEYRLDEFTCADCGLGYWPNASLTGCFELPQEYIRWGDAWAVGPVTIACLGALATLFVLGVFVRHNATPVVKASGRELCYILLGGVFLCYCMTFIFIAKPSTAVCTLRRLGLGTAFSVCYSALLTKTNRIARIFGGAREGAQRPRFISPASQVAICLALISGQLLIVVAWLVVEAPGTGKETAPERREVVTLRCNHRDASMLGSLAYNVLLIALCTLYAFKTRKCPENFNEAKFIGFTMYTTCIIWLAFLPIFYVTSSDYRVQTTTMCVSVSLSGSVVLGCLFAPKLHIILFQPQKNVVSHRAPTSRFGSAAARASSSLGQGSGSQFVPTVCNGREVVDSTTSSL

Take `CCCn1c(=O)c2ccc(-c3ccc(N)nc3)cc2n2nc(C3CCCC3)cc12.Cl` [Example 71, 8-(6-Amino-pyridin-3-yl)-2-cyclopentyl-4-propyl-4H-pyrazolo[1,5-a]quinazolin-5-one]: the melting point is > 250 °C. Also, the IC50 in data set [1] was < 1000 nM.
For `Cl.Cn1cc(-c2cc3n(C)c(=O)c4ccc(-c5cccnc5)cc4n3n2)cn1` [Example 126, 4-Methyl-2-(1-methyl-1H-pyrazol-4-yl)-8-pyridin-3-yl-4H-pyrazolo[1,5-a]quinazolin-5-one] the same measures were > 250 °C and < 1000 nM.
For `Cn1c(=O)c2ccc(-c3cccc(S(=O)(=O)NC(C)(C)CO)c3)cc2n2nc(C3CCOCC3)cc12` [Example 101, N-(2-Hydroxy-1,1-dimethyl-ethyl)-3-[4-methyl-5-oxo-2-(tetrahydro-pyran-4-yl)-4,5-dihydro-pyrazolo[1,5-a]quinazolin-8-yl]-benzenesulfonamide] the same measures were 223 to 226 °C and < 1000 nM.
In the same order, the values of `Cl.Cn1c(=O)c2ccc(-c3ccc(N)nc3)cc2n2nc(C3CCSCC3)cc12` [Example 83, 8-(6-Amino-pyridin-3-yl)-4-methyl-2-(tetrahydro-thiopyran-4-yl)-4H-pyrazolo[1,5-a]quinazolin-5-one] are > 250 °C and < 1000 nM.
In the case of `Cl.Cn1c(=O)c2ccc(-c3ccc(N)nc3)cc2n2nc(C3CCOCC3)cc12` [Example 86, 8-(6-Amino-pyridin-3-yl)-4-methyl-2-(tetrahydro-pyran-4-yl)-4H-pyrazolo[1,5-a]quinazolin-5-one], the melting point is > 250 °C. In addition, the IC50 in data set [1] is < 1000 nM.
For `Cc1cc(-c2ccc3c(=O)n(C)c4cc(C5CCOCC5)nn4c3c2)cc(C)n1.Cl` [Example 97, 8-(2,6-Dimethyl-pyridin-4-yl)-4-methyl-2-(tetrahydro-pyran-4-yl)-4H-pyrazolo[1,5-a]quinazolin-5-one] the same measures were > 250 °C and < 1000 nM.
As to `Cl.Cn1c(=O)c2ccc(-c3ccc(N)nc3)cc2n2nc(C3CCCC3)cc12` [Example 65, 8-(6-Amino-pyridin-3-yl)-2-cyclopentyl-4-methyl-4H-pyrazolo[1,5-a]quinazolin-5-one], the melting point was > 250 °C. Further, the IC50 in data set [1] is < 1000 nM.
Regarding `CCn1c(=O)c2ccc(-c3cc(C)nc(C)c3)cc2n2nc(C3CCCC3)cc12.Cl` [Example 70, 2-Cyclopentyl-8-(2,6-dimethyl-pyridin-4-yl)-4-ethyl-4H-pyrazolo[1,5-a]quinazolin-5-one], the melting point was > 250 °C. For the same compound, the IC50 in data set [1] was < 1000 nM.
For `CCc1ncccc1-c1ccc2c(=O)n(C)c3cc(-c4ccnc(C(F)(F)F)c4)nn3c2c1.Cl` [Example 137, 8-(2-Ethyl-pyridin-3-yl)-4-methyl-2-(2-trifluoromethyl-pyridin-4-yl)-4H-pyrazolo[1,5-a]quinazolin-5-one] the same measures were > 250 °C and < 1000 nM.
In the same order, the values of `Cc1n[nH]c(C)c1-c1ccc2c(=O)n(C)c3cc(-c4ccnc(C(F)(F)F)c4)nn3c2c1` [Example 145, 8-(3,5-Dimethyl-1H-pyrazol-4-yl)-4-methyl-2-(2-trifluoromethyl-pyridin-4-yl)-4H-pyrazolo[1,5-a]quinazolin-5-one] are > 250 °C and < 1000 nM.
For `CCn1c(=O)c2ccc(-c3cccc(S(=O)(=O)N(C)C)c3)cc2n2nc(-c3ccccc3)cc12` [Example 39, N,N-Dimethyl-3-(4-Ethyl-5-oxo-2-phenyl-4,5-dihydro-pyrazolo[1,5-a]quinazolin-8-yl)-benzenesulfonamide] the same measures were 197 to 198 °C and < 1000 nM.
`Cl.Cn1c(=O)c2ccc(-c3cnc(N)nc3)cc2n2nc(-c3ccccc3)cc12` [Example 31, 8-(2-Amino-pyrimidin-5-yl)-4-methyl-2-phenyl-4H-pyrazolo[1,5-a]quinazolin-5-one]: the melting point was > 250 °C. Besides, in data set [1], the IC50 was < 1000 nM.
In the same order, the values of `Cl.Cn1c(=O)c2ccc(-c3cnc(N)cn3)cc2n2nc(-c3ccccc3)cc12` [Example 30, 8-(5-Amino-pyrazin-2-yl)-4-methyl-2-phenyl-4H-pyrazolo[1,5-a]quinazolin-5-one] are 192 to 193 °C and < 1000 nM.
For the compound `Cl.Cn1c(=O)c2ccc(-c3ccc(N)nc3)cc2n2nc(-c3ccc(F)cc3)cc12` [Example 80, 8-(6-Amino-pyridin-3-yl)-2-(4-fluoro-phenyl)-4-methyl-4H-pyrazolo[1,5-a]quinazolin-5-one], the melting point is > 250 °C. Further, the IC50 in data set [1] was < 1000 nM.
For `Cl.Cn1c(=O)c2ccc(-c3ccc(N)nc3)cc2n2nc(-c3ccco3)cc12` [Example 82, 8-(6-Amino-pyridin-3-yl)-2-furan-2-yl-4-methyl-4H-pyrazolo[1,5-a]quinazolin-5-one] the same measures were 218 to 229 °C and < 1000 nM.
`Cn1c(=O)c2ccc(-c3ccc4nccn4c3)cc2n2nc(-c3ccccc3)cc12` [Example 8, 8-Imidazo[1,2-a]pyridin-6-yl-4-methyl-2-phenyl-4H-pyrazolo[1,5-a]quinazolin-5-one]: the melting point was > 250 °C. In addition, the IC50 in data set [1] was < 1000 nM.
For `Cn1c(=O)c2ccc(-c3ccc(F)nc3)cc2n2nc(-c3ccnc(C(F)(F)F)c3)cc12` [Example 141, 8-(6-Fluoro-pyridin-3-yl)-4-methyl-2-(2-trifluoromethyl-pyridin-4-yl)-4H-pyrazolo[1,5-a]quinazolin-5-one] the same measures were > 250 °C and < 1000 nM.
In the same order, the values of `Cc1n[nH]cc1-c1ccc2c(=O)n(C)c3cc(-c4ccc(F)cc4)nn3c2c1` [Example 81, 2-(4-Fluoro-phenyl)-4-methyl-8-(3-methyl-1H-pyrazol-4-yl)-4H-pyrazolo[1,5-a]quinazolin-5-one] are > 250 °C and < 1000 nM.
In the same order, the values of `Cc1ncncc1-c1ccc2c(=O)n(C)c3cc(-c4ccnc(C(F)(F)F)c4)nn3c2c1.Cl` [Example 144, 4-Methyl-8-(4-methyl-pyrimidin-5-yl)-2-(2-trifluoromethyl-pyridin-4-yl)-4H-pyrazolo[1,5-a]quinazolin-5-one] are > 250 °C and < 1000 nM.
Compound `Cc1n[nH]cc1-c1ccc2c(=O)n(C)c3cc(-c4ccccc4)nn3c2c1` [Example 18, 4-Methyl-8-(3-methyl-1H-pyrazol-4-yl)-2-phenyl-4H-pyrazolo[1,5-a]quinazolin-5-one] gave a melting point of 174 to 176 °C. The half-maximal inhibitory concentration (IC50) in data set [1] is < 1000 nM.
In the same order, the values of `Cn1c(=O)c2ccc(-c3cccc(C#N)c3)cc2n2nc(-c3ccccc3)cc12` [Example 35, 3-(4-Methyl-5-oxo-2-phenyl-4,5-dihydro-pyrazolo[1,5-a]quinazolin-8-yl)-benzonitrile] are > 250 °C and < 1000 nM.
In the same order, the values of `Cl.Cn1c(=O)c2ccc(-c3ccc(N)nc3)cc2n2nc(-c3ccnc(C(F)(F)F)c3)cc12` [Example 136, 8-(6-Amino-pyridin-3-yl)-4-methyl-2-(2-trifluoromethyl-pyridin-4-yl)-4H-pyrazolo[1,5-a]quinazolin-5-one] are > 250 °C and < 1000 nM.
In the same order, the values of `CC(C)c1cc2n(C)c(=O)c3ccc(-c4ccc(N)nc4)cc3n2n1.Cl` [Example 51, 8-(6-Amino-pyridin-3-yl)-2-isopropyl-4-methyl-4H-pyrazolo[1,5-a]quinazolin-5-one] are 240 to 244 °C and < 1000 nM.
Take `Cc1cc(-c2cc3n(C)c(=O)c4ccc(-c5c[nH]nc5C(F)(F)F)cc4n3n2)cc(C)n1.Cl` [Example 147, 2-(2,6-Dimethyl-pyridin-4-yl)-4-methyl-8-(3-trifluoromethyl-1H-pyrazol-4-yl)-4H-pyrazolo[1,5-a]quinazolin-5-one]: the melting point is > 250 °C. Further, in data set [1], the IC50 was < 1000 nM.
For `Cc1ncccc1-c1ccc2c(=O)n(C)c3cc(-c4ccnc(C(F)(F)F)c4)nn3c2c1.Cl` [Example 135, 4-Methyl-8-(2-methyl-pyridin-3-yl)-2-(2-trifluoromethyl-pyridin-4-yl)-4H-pyrazolo[1,5-a]quinazolin-5-one] the same measures were > 250 °C and < 1000 nM.

Usually IC50 stands for the concentration that gives 50% inhibition. For orientation: melting point means the temperature of the solid-liquid transition.

The values above are taken from US9434734B2, “Substituted pyrazoloquinazolinones and pyrroloquinazolinones as allosteric modulators of group II metabotropic glutamate receptors” (Domain Therapeutics, priority 2012, dated 2016).
